Data: patent US6706880B2 (Research Triangle Institute, priority 1990, dated 2004)
Where a name gives a salt, the structure may show the parent alone. Read-outs that look alike come from different tables or passages of the source.

Assays:
dopamine transporter [1] = target: dopamine transporter (UniProt P23977); assay type: binding
Excerpt: (§1) Illustrative in vitro assays for binding are described in Boja et al Ann. NY Acad. Sci. 654:282-291 (1992), which is incorporated herein by reference in its entirety. […] Alternatively, the compounds may be analyzed by their ability to inhibit reuptake of a labelled neurotransmitter in a sample, in particular, in synaptosomes.

dopamine transporter [2] = assay type: binding; conditions: ratio of IC50 values, Table II
Excerpt: as §1

serotonin transporter = target: T1, serotonin transporter (Rattus norvegicus, UniProt P31652); assay: Inhibition of [3H]paroxetine radioligand binding at the serotonin transporter
T1 construct: from tissue
Excerpt: as §1

[3] = target: norepinephrine transporter (UniProt Q9WTR4); assay: Inhibition of [3H]nisoxetine radioligand binding at the norepinephrine transporter
Excerpt: as §1

[4] = read-out: IC50 DA [3H]-WIN 35,428, Table II
[5] = IC50 5-HT [3H]-paroxatine, Table II
[6] = read-out: IC50 NE [3H]-nisoxetine, Table II
[7] = read-out: DA IC50 for inhibition of radioligand binding, DA=[3H]WIN 35,428
[8] = 5-HT IC50 for inhibition of radioligand binding, 5-HT=[3H] paroxetine
[9] = read-out: NEN IC50 for inhibition of radioligand binding, NEN=[3H] nisoxetine
[10] = 5-HT=[3H] paroxetine, read-out: 5-HT IC50 for inhibition of radioligand binding
[11] = read-out: IC50 DA [3H]-WIN 35,428, Table IV
[12] = IC50 5-HT [3H]-paroxetine, Table IV
[13] = read-out: IC50 NE [3H]-nisoxetine, Table IV
[14] = NEN=[3H] nisoxetine, read-out: NEN IC50 for inhibition of radioligand binding
[15] = read-out: IC50 DA [3H] WIN 35,428, Table III
[16] = read-out: IC50 NE [3H] Nisoxetine, Table III

T1 sequence (P31652 whole entry): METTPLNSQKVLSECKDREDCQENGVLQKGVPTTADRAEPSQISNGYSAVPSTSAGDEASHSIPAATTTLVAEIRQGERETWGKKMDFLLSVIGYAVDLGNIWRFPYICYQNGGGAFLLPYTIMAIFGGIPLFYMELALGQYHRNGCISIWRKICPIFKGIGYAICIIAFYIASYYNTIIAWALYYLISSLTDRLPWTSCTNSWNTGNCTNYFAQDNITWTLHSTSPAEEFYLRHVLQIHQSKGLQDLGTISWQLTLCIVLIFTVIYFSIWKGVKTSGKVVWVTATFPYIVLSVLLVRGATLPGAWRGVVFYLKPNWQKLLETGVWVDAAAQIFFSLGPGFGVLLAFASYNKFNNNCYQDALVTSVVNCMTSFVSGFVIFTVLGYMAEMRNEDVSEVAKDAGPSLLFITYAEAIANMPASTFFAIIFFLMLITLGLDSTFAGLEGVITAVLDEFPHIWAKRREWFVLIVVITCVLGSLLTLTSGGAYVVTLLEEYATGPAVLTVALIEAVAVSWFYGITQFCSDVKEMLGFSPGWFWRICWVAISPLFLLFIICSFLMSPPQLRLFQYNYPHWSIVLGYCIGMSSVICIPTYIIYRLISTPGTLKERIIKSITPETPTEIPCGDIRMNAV

SMILES	IC50 (dopamine transporter [1]; [7]) [nM]	IC50 (serotonin transporter; [8]) [nM]	IC50 [3, 9] [nM]	IC50 (serotonin transporter; [10]) [nM]	further results
Cc1ccc([C@H]2C[C@@H]3CC[C@H]([C@H]2c2nn[nH]n2)N3C)cc1 [RTI-157, 3β-(4-Methylphenyl)-tropane-2β-tetrazole Hydrochloride]	–	–	–	–	IC50 (dopamine transporter [1]; [4]): 1560 nM; 5-HT/DA Ratio (dopamine transporter [2]): 28; NE/DA Ratio (dopamine transporter [2]): 21; IC50 (serotonin transporter; [5]): 43600 nM; IC50 [3, 6]: 32500 nM
CC(C)c1noc(C2C(c3ccc(Cl)cc3)CC3CCC2N3C)n1 (centres unmarked) [RTI-4229-154]	6	3460	135	–	–
Cc1ccc(C2CC3CCC(C2c2cc(C)no2)N3C)cc1.Cl (stereo not drawn) [RTI-4229-171, 3β-(4-Methylphenyl)-2P-(3-methylisoxazol-5-yl)tropane Hydrochloride]	0.93	–	254	3820	IC50 (dopamine transporter [1]; [4]): 0.93 nM; 5-HT/DA Ratio (dopamine transporter [2]): 4105; NE/DA Ratio (dopamine transporter [2]): 273; IC50 (serotonin transporter; Table II, read-out: IC50 5-HT [3H]-paroxatine (converted)): 3820 nM; IC50 [3, 6]: 254 nM
CCc1ccc(C2CC3CCC(N3)C2C(=O)OC)cc1 (centres unmarked) [RTI-4229-173]	49.9	–	122	8.13	–
Cc1ccc([C@H]2C[C@@H]3CC[C@H]([C@H]2c2cc(-c4ccccc4)no2)N3C)cc1 [RTI-4229-176, 3β-(4-Methylphenyl)-2β-(3-phenylisoxazol-5-yl)tropane Hydrochloride]	1.58	5110	398	–	IC50 (dopamine transporter [1]; [4]): 1.58 nM; 5-HT/DA Ratio (dopamine transporter [2]): 3234; NE/DA Ratio (dopamine transporter [2]): 251; IC50 (serotonin transporter; [5]): 5110 nM; IC50 [3, 6]: 398 nM
CN1C2CCC1C(C(=O)OC1CC1)C(c1ccc(Cl)cc1)C2 (centres unmarked) [RTI-4229-190]	0.96	–	235	168	–
CN1C2CCC1C(C(=O)OC1CC1)C(c1ccc(I)cc1)C2 (centres unmarked) [RTI-4229-191]	0.61	–	102	15.5	–
Cc1ccc(C2CC3CCC(C2C(=O)OC2CC2)N3C)cc1 (centres unmarked) [RTI-4229-193]	1.68	–	544	1070	–
Cc1cccc(OC(=O)C2C(c3ccc(Cl)cc3)CC3CCC2N3C)c1 (centres unmarked) [RTI-4229-203]	9.37	–	2740	2150	–
Cc1ccccc1OC(=O)C1C(c2ccc(Cl)cc2)CC2CCC1N2C (centres unmarked) [RTI-4229-204]	3.91	–	4780	3770	–
Cc1ccc(C2CC3CCC(C2C(=O)Oc2cccc(C)c2)N3C)cc1 (centres unmarked) [RTI-4229-205]	8.19	–	2140	5240	–
Cc1ccc(OC(=O)C2C(c3ccc(Cl)cc3)CC3CCC2N3C)cc1 (centres unmarked) [RTI-4229-206]	27.4	–	1280	1200	–
CN1C2CCC1C(C(=O)N1CCCCOCC1)C(c1ccc(Cl)cc1)C2 (centres unmarked) [RTI-4229-214]	2.9	88800	8550	–	–
C=C(C)C1C(c2ccc(Cl)cc2)CC2CCC1N2C (centres unmarked) [RTI-4229-230]	1.26	57.4	141	–	IC50 (dopamine transporter [1]; [11]): 1.28 ± 0.17 nM; IC50 (serotonin transporter; [12]): 57 ± 50 nM; IC50 [3, 13]: 141 ± 18 nM
Cc1ccc(C2CC3CCC(C2C(C)C)N3C)cc1 (centres unmarked) [RTI-4229-239]	0.61	114	35.6	–	IC50 (dopamine transporter [1]; [11]): 0.61 ± 0.07 nM; IC50 (serotonin transporter; [12]): 114 ± 3.69 nM; IC50 [3, 13]: 35.6 ± 2.57 nM
CC(C)C1C(c2ccc(Cl)cc2)CC2CCC1N2C (centres unmarked) [RTI-4229-240]	1.38	38.4	84.5	–	IC50 (dopamine transporter [1]; [11]): 1.38 ± 0.03 nM; IC50 (serotonin transporter; [12]): 38.4 ± 2.31 nM; IC50 [3, 13]: 84.5 ± 3.09 nM
COC(=O)CC1C(c2ccc(C)cc2)CC2CCC1N2C (centres unmarked) [RTI-4229-241]	1.02	618	124	–	IC50 (dopamine transporter [1]; [11]): 1.02 ± 0.06 nM; IC50 (serotonin transporter; [12]): 618 ± 28 nM; IC50 [3, 13]: 124 ± 3.56 nM
COC(=O)C1CN2C3CCC2C(C1=O)C(c1ccc(Cl)cc1)C3 (centres unmarked) [RTI-4229-242]	–	227	–	–	IC50 (dopamine transporter [1]; DA=[3H]WIN 35,428, read-out: DA IC50 for inhibition of radioligand binding): 7.57 nM; IC50 [3, 14]: 510 nM
O=C1CCN2C3CCC2C1C(c1ccc(Cl)cc1)C3 (centres unmarked) [RTI-4229-243]	129	156	–	–	IC50 [3, 14]: 540 nM
CCOC(=O)CN1C2CCC1C(C(=O)OC)C(c1ccc(Cl)cc1)C2 (centres unmarked) [RTI-4229-251]	1.93	10.1	114	–	–
COC(=O)CCN1C2CCC1C(C(=O)OC)C(c1ccc(Cl)cc1)C2 (centres unmarked) [RTI-4229-252]	2.56	35.2	125	–	–
Fc1ccc(C2CC3CCC(N3)C2COc2ccc3c(c2)OCO3)cc1 (centres unmarked) [RTI-4229-274]	3.96	5.62	14.4	–	–
CN1C2CCC1C(C(=O)Oc1ccccc1)C(c1ccc([N+](=O)[O-])cc1)C2 (centres unmarked) [RTI-4229-277]	5.94	2910	5700	–	–
COC(=O)C1C2CCC(CC1c1ccc(C)c(I)c1)N2 (centres unmarked) [RTI-4229-279]	5.96	1.06	74.3	–	IC50 (dopamine transporter [1]; [15]): 5.98 ± 0.48 nM; IC50 (serotonin transporter; IC50 5-HT [3H] Paroxetine, Table III): 1.06 ± 0.39 nM; IC50 [3, 16]: 74.3 ± 3.8 nM
COC(=O)C1C(c2ccc(C)c(I)c2)CC2CCC1N2C (centres unmarked) [RTI-4229-280]	3.12	6.81	484	–	–

SMILES	IC50 (dopamine transporter [1]; [7]) [nM]	IC50 (serotonin transporter; [8]) [nM]	IC50 [3, 9] [nM]	IC50 (serotonin transporter; [10]) [nM]	further results
CC#Cc1ccc(C2CC3CCC(C2C(=O)OC)N3C)cc1 (centres unmarked) [RTI-4229-281]	2.37	–	820	15.7	–
CCCc1ccc(C2CC3CCC(C2C(=O)OC)N3C)cc1 (centres unmarked) [RTI-4229-282]	68.5	–	3920	70.4	–
C=C(C)c1ccc(C2CC3CCC(C2C(=O)OC)N3C)cc1 (centres unmarked) [RTI-4229-283]	14.3	–	3130	3.13	–
CCc1ccc(C2CC3CCC(C2C(=O)OC)N3C)cc1 (centres unmarked) [RTI-4229-287]	325	1690	17800	–	–
CCc1ccc(C2CC3CCC(C2C(=O)OC)N3C)cc1I (centres unmarked) [RTI-4229-295]	21.3	2.96	1350	–	–
C/C=C/c1ccc(C2CC3CCC(C2C(=O)OC)N3C)cc1 (centres unmarked) [RTI-4229-296]	5.29	–	1590	11.4	–
COC(=O)[C@H]1[C@@H](c2ccc(C#Cc3ccccc3)cc2)C[C@@H]2CC[C@H]1N2C [RTI-4229-298]	3.7	46.8	347	–	–
C/C=C\c1ccc(C2C[C@H]3CCC(C2C(=O)OC)N3C)cc1 (some centres unmarked) [RTI-4229-304]	15	7.09	2800	–	–
COC(=O)C1C2CCC(CC1c1ccc(C)cc1)N2 (centres unmarked) [RTI-4229-305]	1.24	1.59	21.8	–	–
CCC#Cc1ccc(C2CC3CCC(N3)C2C(=O)OC)cc1 (centres unmarked) [RTI-4229-307]	6.11	3.16	116	–	–
C=Cc1ccc(C2CC3CCC(N3)C2C(=O)OC)cc1 (centres unmarked) [RTI-4229-309]	1.73	–	14.9	2.25	–
COC(=O)[C@@H]1C2CCC(C[C@@H]1c1ccc3ccccc3c1)N2C (some centres unmarked) [RTI-4229-318]	0.51	0.8	21.1	–	–
COC(=O)C1C(c2ccc3ccccc3c2)CC2CCC1N2C (centres unmarked) [RTI-4229-319]	1.1	11.4	70.2	–	–
CCc1cc([C@@H]2C3CCC(C[C@@H]2c2ccc(Cl)cc2)N3C)on1 (some centres unmarked) [RTI-4229-334]	0.5	3090	120	–	–
CC(C)c1cc([C@@H]2C3CCC(C[C@@H]2c2ccc(Cl)cc2)N3C)on1 (some centres unmarked) [RTI-4229-335]	1.19	2320	954	–	–
Cc1ccc(-c2cc([C@@H]3C4CCC(C[C@@H]3c3ccc(Cl)cc3)N4C)on2)cc1 (some centres unmarked) [RTI-4229-336]	4.09	5740	1710	–	–
CCc1ccc(C2CC3CCC(N3)C2C(=O)OCc2ccccc2)cc1 (centres unmarked) [RTI-4229-338]	1100	7.41	3370	–	–
CN1C2CCC1[C@@H](c1cc(-c3ccc(Cl)cc3)no1)[C@@H](c1ccc(Cl)cc1)C2 (some centres unmarked) [RTI-4229-345]	6.42	> 76000	5290	–	–
COc1ccc(-c2cc([C@@H]3C4CCC(C[C@@H]3c3ccc(Cl)cc3)N4C)on2)cc1 (some centres unmarked) [RTI-4229-346]	1.57	5880	762	–	–
CN1C2CCC1[C@@H](c1cc(-c3ccc(F)cc3)no1)[C@@H](c1ccc(Cl)cc1)C2 (some centres unmarked) [RTI-4229-347]	1.86	7260	918	–	–
CN1C2CCC1C(c1ccccc1)C(c1ccccc1)C2 (centres unmarked) [RTI-4229-348]	28.2	–	2670	34700	–
COC(=O)C1C(c2ccc(I)cc2)CC2CCC1N2C (centres unmarked) [RTI-4229-352]	2.86	–	52.4	64.9	–
CCc1ccc(C2CC3CCC(N3)C2C(=O)OC)cc1I (centres unmarked) [RTI-4229-353]	331	–	148	0.69	IC50 (dopamine transporter [1]; [15]): 331 ± 17 nM; potency at the serotonin site (serotonin transporter; in words): highly potent; selectivity relative to the dopamine and norepinephrine sites (serotonin transporter; in words): selective; IC50 (serotonin transporter; read-out: IC50 5-HT [3H] Paroxetine, Table III): 0.69 ± 0.07 nM; IC50 [3, 16]: 148 ± 9.2 nM
Cc1ccc(C2CC3CCC(C2c2ccccc2)N3C)cc1 (centres unmarked) [RTI-4229-422]	1.96	1100	6090	–	–
